1 molecule from patent publication US7662863B2, “Therapeutic agent for the use in reducing alcohol intoxication and reducing or eliminating the negative side effects associated with alcohol ingestion” (priority 2003, dated 2010) can be followed below.

For one test, the system named is hangover symptoms. Nature of the test: Subject questionnaire on hangover symptoms and overall feelings after alcohol consumption, glucarate versus placebo. Format: in vivo, human. As to conditions: twenty subjects, questionnaire 12-14 hours after each occasion. The text has this: (§1) Twenty subjects, currently taking no form of d-glucarate, were recruited for the evaluation. On two separate occasions (at least 5 days apart) the subjects voluntarily consumed alcoholic beverages. The amount ingested was at their discretion, however it was the exact same about on both occasions and roughly over the same duration (+/−½ hour).
(§2) On the first occasion, the subject was asked to take a placebo, while on the second occasion the subject was asked to take d-glucarate. The subjects were not informed what they were taking on either occasion, or of the difference between the placebo and chemical compound.
(§3) On the second occasion 1000 mg of Potassium Hydrogen Glucarate was administered before alcohol consumption, then 500 mg after alcohol consumption, then 1000 mg 8 hours later.
Referring to FIG. 2, 12-14 hours after each occasion the subjects filled out the questionnaire to reflect each subject's observation of hangover symptoms. A 1 on the scale represents the most severe of symptoms, and a 5 represents neutral feeling or no symptom. The black circle indicates the average on the 20 subjects studied.
Referring to FIG. 3, the last parameter measured was the subjects overall feelings, a rating of 1 being the most unpleasant to a rating of 5 representing the most pleasant of each subject's typical feeling.

Test [1] is described as follows: Blood alcohol level (BAC test strip) in human subjects after alcohol consumption, glucarate versus placebo. As to conditions: twenty subjects. Format: in vivo.
Description: as §1, §2
On the first occasion the placebo was administered prior to alcohol ingestion, after alcohol ingestion then 8 hours following ingestion.
A BAC was used to determine the Blood alcohol level after consumption then 8 hours later.
as §3
A BAC test strip was used to determine the Blood alcohol level after consumption then 8 hours later.

As to `O=C(O)[C@@H](O)[C@@H](O)[C@H](O)[C@@H](O)C(=O)[O-].[K+]` [glucarate compound, Potassium Hydrogen Glucarate], the “hangover symptoms and overall feelings, average index on scale 1-5” value in the test with hangover symptoms is listed as “reduced the subjects' hangover tendencies”. For the same molecule, in test [1] (after rest and a duration of 8 hours, 1000 mg before and 500 mg after alcohol consumption), the “decrease in the total level of recirculating alcohol relative to a placebo” value was 55%. The “reduction in the amount of alcohol recirculating within the blood stream relative to a placebo” value in test [1] (immediately after alcohol consumption, 1000 mg before alcohol consumption, oral) is 18%.
